The target of this assay is T1, NaV 1.7 (Homo sapiens, UniProt Q15858).
T1 construct: expressed in transfected cells; host or cells: HEK cells
T1 sequence (Q15858 whole entry): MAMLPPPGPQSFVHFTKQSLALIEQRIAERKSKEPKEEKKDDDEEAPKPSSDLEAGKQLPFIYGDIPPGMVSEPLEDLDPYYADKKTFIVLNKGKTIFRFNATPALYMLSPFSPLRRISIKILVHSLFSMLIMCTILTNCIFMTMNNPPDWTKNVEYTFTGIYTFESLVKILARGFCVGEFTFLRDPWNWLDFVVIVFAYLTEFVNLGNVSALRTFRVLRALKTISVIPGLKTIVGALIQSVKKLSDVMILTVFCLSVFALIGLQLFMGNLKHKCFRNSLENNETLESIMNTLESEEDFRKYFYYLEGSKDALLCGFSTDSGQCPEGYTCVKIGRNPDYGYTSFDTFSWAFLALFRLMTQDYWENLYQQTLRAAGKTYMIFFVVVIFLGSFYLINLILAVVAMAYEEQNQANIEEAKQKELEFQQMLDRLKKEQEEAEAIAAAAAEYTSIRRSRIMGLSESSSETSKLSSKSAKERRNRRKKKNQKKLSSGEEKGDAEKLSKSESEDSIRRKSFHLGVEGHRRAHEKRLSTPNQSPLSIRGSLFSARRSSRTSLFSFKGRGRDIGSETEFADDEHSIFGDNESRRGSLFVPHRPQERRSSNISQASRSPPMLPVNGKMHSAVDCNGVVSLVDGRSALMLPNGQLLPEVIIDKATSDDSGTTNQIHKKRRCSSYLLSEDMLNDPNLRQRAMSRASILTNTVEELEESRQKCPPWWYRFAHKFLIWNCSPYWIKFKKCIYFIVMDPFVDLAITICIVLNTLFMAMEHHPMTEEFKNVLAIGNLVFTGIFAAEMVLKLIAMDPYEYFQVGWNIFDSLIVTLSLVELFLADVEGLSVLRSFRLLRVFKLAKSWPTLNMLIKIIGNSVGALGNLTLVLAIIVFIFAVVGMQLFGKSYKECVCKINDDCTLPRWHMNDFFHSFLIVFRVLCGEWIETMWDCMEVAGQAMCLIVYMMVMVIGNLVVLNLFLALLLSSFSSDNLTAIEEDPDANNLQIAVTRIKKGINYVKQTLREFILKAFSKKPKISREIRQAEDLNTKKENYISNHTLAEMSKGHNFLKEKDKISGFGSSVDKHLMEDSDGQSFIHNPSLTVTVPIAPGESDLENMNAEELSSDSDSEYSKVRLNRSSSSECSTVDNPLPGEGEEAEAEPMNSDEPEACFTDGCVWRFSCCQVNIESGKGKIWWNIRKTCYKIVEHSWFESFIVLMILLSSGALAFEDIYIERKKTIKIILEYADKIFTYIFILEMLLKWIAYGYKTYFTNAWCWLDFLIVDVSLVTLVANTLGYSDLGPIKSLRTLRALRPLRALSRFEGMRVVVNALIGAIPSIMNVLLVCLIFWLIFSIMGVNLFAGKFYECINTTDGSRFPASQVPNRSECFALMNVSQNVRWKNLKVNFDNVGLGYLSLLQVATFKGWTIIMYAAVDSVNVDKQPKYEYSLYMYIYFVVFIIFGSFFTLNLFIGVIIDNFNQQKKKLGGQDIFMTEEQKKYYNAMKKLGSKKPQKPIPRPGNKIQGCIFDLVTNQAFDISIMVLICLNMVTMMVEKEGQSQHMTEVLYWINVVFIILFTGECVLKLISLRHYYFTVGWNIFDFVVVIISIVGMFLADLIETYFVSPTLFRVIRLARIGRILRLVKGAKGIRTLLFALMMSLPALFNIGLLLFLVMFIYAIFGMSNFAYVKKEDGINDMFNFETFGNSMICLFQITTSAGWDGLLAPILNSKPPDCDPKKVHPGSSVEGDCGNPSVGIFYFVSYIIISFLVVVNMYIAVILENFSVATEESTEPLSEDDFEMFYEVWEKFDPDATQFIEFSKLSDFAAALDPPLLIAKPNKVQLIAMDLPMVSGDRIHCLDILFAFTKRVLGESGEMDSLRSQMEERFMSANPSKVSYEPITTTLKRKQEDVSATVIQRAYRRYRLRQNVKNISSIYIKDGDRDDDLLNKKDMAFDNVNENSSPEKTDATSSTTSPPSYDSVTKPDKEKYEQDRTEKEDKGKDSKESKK
The assay is described as follows: E-VIPR optical membrane potential assay with electrical stimulation. The assay is classed as cell-based. The settings on record: active against one or more sodium channels; assay/subtype not specified in Table 4; read-out: IC50 Binned Activity Data. An excerpt:
E-VIPR Optical Membrane Potential Assay Method with Electrical Stimulation
Sodium channels are voltage-dependent proteins that can be activated by inducing membrane voltage changes by applying electric fields. The electrical stimulation instrument and methods of use are described in Ion Channel Assay Methods PCT/US01/21652, herein incorporated by reference and are referred to as E-VIPR. The instrument comprises a microtiter plate handler, an optical system for exciting the coumarin dye while simultaneously recording the coumarin and oxonol emissions, a waveform generator, a current- or voltage-controlled amplifier, and a device for inserting electrodes in well. Under integrated computer control, this instrument passes user-programmed electrical stimulus protocols to cells within the wells of the microtiter plate.
24 hours before the assay on E-VIPR, HEK cells expressing human NaV subtype, like NaV 1.7, are seeded in 384-well poly-lysine coated plates at 15,000-20,000 cells per well. Other subtypes are performed in an analogous mode in a cell line expressing the NaV of interest. HEK cells are grown in media (exact composition is specific to each cell type and NaV subtype) supplemented with 10% FBS (Fetal Bovine Serum, qualified; GibcoBRL #16140-071) and 1% Pen-Strep (Penicillin-Streptomycin; GibcoBRL #15140-122). Cells are grown in vented cap flasks, in 90% humidity and 10% CO2, to 100% confluence. They are usually split by trypsinization 1:10 or 1:20, depending on scheduling needs, and grown for 2-3 days before the next split.
• 100 mg/mL Pluronic F-127 (Sigma #P2443), in dry DMSO • Compound Plates: 384-well round bottom plate, e.g. Corning 384-well Polypropylene Round Bottom #3656 • Cell Plates: 384-well tissue culture treated plate, e.g. Greiner #781091-1B • 10 mM DiSBAC6(3) (Aurora #00-100-010) in dry DMSO • 10 mM CC2-DMPE (Aurora #00-100-008) in dry DMSO • 200 mM ABSC1 in H2O
Bath1 buffer. Glucose 10 mM (1.8 g/L), Magnesium Chloride (Anhydrous), 1 mM (0.095 g/L), Calcium Chloride, 2 mM (0.222 g/L), HEPES 10 mM (2.38 g/L), Potassium Chloride, 4.5 mM (0.335 g/L), Sodium Chloride 160 mM (9.35 g/L).
Hexyl Dye Solution: Bath1 Buffer+0.5% β-cyclodextrin (make this prior to use, Sigma #C4767), 8 μM CC2-DMPE+2.5 μM DiSBAC6(3). To make the solution Add volume of 10% Pluronic F127 stock equal to volumes of CC2-DMPE+DiSBAC6(3). The order of preparation is first mix Pluronic and CC2-DMPE, then add DiSBAC6(3) while vortexing, then add Bath1+β-Cyclodextrin.
1) Pre-spot compounds (in neat DMSO) into compound plates. Vehicle control (neat DMSO), the positive control (20 mM DMSO stock tetracaine, 125 μM final in assay) and test compounds are added to each well at 160× desired final concentration in neat DMSO. Final compound plate volume will be 80 μL (80-fold intermediate dilution from 1 μL DMSO spot; 160-fold final dilution after transfer to cell plate). Final DMSO concentration for all wells in assay is 0.625%.
2) Prepare Hexyl Dye Solution.
3) Prepare cell plates. On the day of the assay, medium is aspirated and cells are washed three times with 100 μL of Bath1 Solution, maintaining 25 μL residual volume in each well.
4) Dispense 25 μL per well of Hexyl Dye Solution into cell plates. Incubate for 20-35 minutes at room temp or ambient conditions.
5) Dispense 80 μL per well of Bath1 into compound plates. Acid Yellow-17 (1 mM) is added and Potassium Chloride can be altered from 4.5 to 20 mM depending on the NaV subtype and assay sensitivity.
6) Wash cell plates three times with 100 μL per well of Bath1, leaving 25 μL of residual volume. Then transfer 25 uL per well from Compound Plates to Cell Plates. Incubate for 20-35 minutes at room temp/ambient condition
7) Read Plate on E-VIPR. Use the current-controlled amplifier to deliver stimulation wave pulses for typically 9 seconds and a scan rate of 400 Hz. A pre-stimulus recording is performed for 0.5 seconds to obtain the un-stimulated intensities baseline. […]
`Cc1cc(C(=O)N2CC[C@]3(c4cscn4)OCOC3C2)ccc1OCC(C)(C)F` (some centres unmarked) [Compound 52]: the IC50 (in general, the concentration needed to halve the response being measured) lay within 2 to 5 µM.

As to `Cc1cc(C(=O)N2CC[C@]3(c4ccc(F)cc4)OCOC3C2)ccc1OCC(C)(C)O` (some centres unmarked) [Compound 53], the 50% inhibitory concentration (IC50) was at most 2 µM.

For the compound `O=C(c1ccc2c(c1)OCC(COC(F)(F)F)O2)N1CC[C@@]2(c3ccccc3)OCOC2C1` (some centres unmarked) [Compound 54], the IC50 is at most 2 µM.

Regarding `COc1cc(C(=O)N2CCC3(c4ccccc4)OCC3C2)ccc1OCCOC(F)(F)F` (centres unmarked) [Compound 55], the IC50 was at most 2 µM.

Turning to `Cc1nc(C(=O)N2CCC3(c4ccccc4)OCC3C2)ccc1OC(C)C` (centres unmarked) [Compound 56], the IC50 was at most 2 µM.

For `CC(C)(O)c1ccc(C(=O)N2CCC3(c4ccccc4)CC3C2)cc1F` (centres unmarked) [Compound 57], the IC50 is over 5 µM.

With `Cc1cc(C(=O)N2CC[C@@]3(c4ccc(F)cc4)OCOC3C2)ccc1OCC(C)(C)O` (some centres unmarked) [Compound 58], the IC50 is at most 2 µM.

With `O=C(c1ccc(OCCOC(F)(F)F)c(F)c1)N1CC[C@@]2(c3nccs3)OCOC2C1` (some centres unmarked) [Compound 59], the IC50 was at most 2 µM.

As to `COc1nc(C(=O)N2CCC3(c4ccccc4)CC3C2)ccc1OCC(C)(C)O` (centres unmarked) [Compound 60], the IC50 is at most 2 µM.

As for `COc1cc(C(=O)N2CC[C@]3(c4ccccn4)OCOC3C2)ccc1OC(C)CC(F)(F)F` (some centres unmarked) [Compound 61], the IC50 was at most 2 µM.

Turning to `O=C(c1ccc(OCCOC(F)(F)F)c(F)c1)N1CC[C@]2(c3nccs3)OCOC2C1` (some centres unmarked) [Compound 62], the IC50 lay within 2 to 5 µM.

Turning to `Cc1cc(C(=O)N2CC[C@@]3(c4nccs4)OCOC3C2)ccc1OCC(F)(F)F` (some centres unmarked) [Compound 63], the IC50 was at most 2 µM.

Take `COc1cc(C(=O)N2CC[C@@]3(c4ccccn4)COC[C@H]3C2)ccc1OCCOC(F)(F)F` [Compound 64]: the IC50 was at most 2 µM.

For the compound `COc1cc(C(=O)N2CCC3(c4ccccc4)CC3C2)ccc1OCC1CCCO1` (centres unmarked) [Compound 65], the concentration for half-maximal inhibition (IC50) was at most 2 µM.

With `COc1cc(C(=O)N2CCC3(c4ccccn4)OCCC3C2)ccc1OCCOC(F)(F)F` (centres unmarked) [Compound 66], the IC50 is at most 2 µM.

Consider `Cc1nc(C(=O)N2CC[C@]3(c4ncccc4Cl)OCOC3C2)ccc1OC(C)C` (some centres unmarked) [Compound 67], for which the IC50 is at most 2 µM.

For the compound `COc1cc(C(=O)N2CCC3(c4ccccn4)OCOC3C2)ccc1OCCOC(F)(F)F` (centres unmarked) [Compound 68], the IC50 is at most 2 µM.

`CC(C)(C)OCCOc1ccc(C(=O)N2CC[C@]3(c4ccccn4)OCOC3C2)cc1Cl` (some centres unmarked) [Compound 69]: the IC50 is at most 2 µM.

With `Cc1cc(C(=O)N2CC[C@]3(c4nccs4)OCOC3C2)ccc1OCC(F)(F)F` (some centres unmarked) [Compound 70], the IC50 is at most 2 µM.

As for `COc1cc(C(=O)N2CC[C@]3(c4ccccc4)OCOC3C2)ccc1OCC(C)(C)F` (some centres unmarked) [Compound 71], the IC50 is at most 2 µM.

Regarding `COc1cc(C(=O)N2CC[C@]3(c4ccccn4)OCO[C@@H]3C2)ccc1OC(C)C(F)(F)F` (some centres unmarked) [Compound 72], the 50% inhibitory concentration (IC50) is at most 2 µM.

In the case of `Cc1cc(C(=O)N2CC[C@@]3(c4ccccc4)OCOC3C2)ccc1OCC(C)(C)O` (some centres unmarked) [Compound 73], the IC50 was at most 2 µM.

Turning to `Cc1nc([C@]23CCN(C(=O)c4ccc(OCC(C)(C)F)c(C)c4)CC2OCO3)cs1` (some centres unmarked) [Compound 74], the IC50 was at most 2 µM.

Consider `Cc1cc(C(=O)N2CC[C@]3(c4ccccc4)OCOC3C2)ccc1OCC(C)(C)O` (some centres unmarked) [Compound 75], for which the IC50 is at most 2 µM.

As to `O=C(c1cccc2cccnc12)N1CC[C@]2(c3ccccc3)OCOC2C1` (some centres unmarked) [Compound 76], the IC50 is at most 2 µM.

With `Cc1cc(C(=O)N2CC[C@]3(c4ccccc4)OCOC3C2)ccc1OC(C)C` (some centres unmarked) [Compound 77], the IC50 was at most 2 µM.

For the compound `COc1cc(C(=O)N2CC[C@@]3(c4csc(C)n4)OCOC3C2)ccc1OCCOC(F)(F)F` (some centres unmarked) [Compound 78], the IC50 was at most 2 µM.

For `Cc1cc(C(=O)N2CCC3(c4ccccc4)CC3C2)ccc1OC(C)C` (centres unmarked) [Compound 79], the IC50 is at most 2 µM.

For `Cc1cc(C(=O)N2CC[C@]3(c4cccc(OCC(C)C)n4)OCOC3C2)ccc1OCCOC(F)(F)F` (some centres unmarked) [Compound 80], the IC50 is at most 2 µM.

`Cc1cc(C(=O)N2CC[C@@]3(c4ccccc4)OCOC3C2)ccc1OC(C)C` (some centres unmarked) [Compound 81]: the IC50 lay within 2 to 5 µM.

On to `Cc1cc(C(=O)N2CC[C@@]3(c4nccs4)OCOC3C2)ccc1OCC(C)(C)F` (some centres unmarked) [Compound 82], for which the IC50 was at most 2 µM.

Turning to `COc1cc(C(=O)N2CCC3(c4ccccc4)CC3C2)ccc1COCC(F)(F)F` (centres unmarked) [Compound 83], the IC50 was at most 2 µM.

As to `O=C(c1ccc(OCC2CC2(F)F)c(C(F)(F)F)c1)N1CC[C@]2(c3ccccn3)OCOC2C1` (some centres unmarked) [Compound 84], the IC50 was at most 2 µM.

`COc1cc(C(=O)N2CC[C@]3(c4nccs4)OCOC3C2)ccc1OCCOC(F)(F)F` (some centres unmarked) [Compound 85]: the IC50 was at most 2 µM.

For `COc1cc(C(=O)N2CC[C@@]3(c4nccs4)OCOC3C2)ccc1OCCOC(F)(F)F` (some centres unmarked) [Compound 86], the IC50 is at most 2 µM.

On to `CC(C)(C)OCCOc1ccc(C(=O)N2CC[C@]3(c4ncccc4OCCOC(C)(C)C)OCOC3C2)cc1Cl` (some centres unmarked) [Compound 87], for which the IC50 is at most 2 µM.

As for `COc1nc(C(=O)N2CC[C@]3(c4csc(C)n4)OCOC3C2)ccc1OCCOC(F)(F)F` (some centres unmarked) [Compound 88], the IC50 is at most 2 µM.

`COc1cccnc1[C@]12CCN(C(=O)c3ccc(OCCOC(F)(F)F)c(C)c3)CC1OCO2` (some centres unmarked) [Compound 89]: the IC50 is at most 2 µM.

On to `COc1cc(C(=O)N2CC[C@]3(c4ccccn4)OCOC3C2)ccc1OCC1CC(F)(F)C1` (some centres unmarked) [Compound 90], for which the IC50 is at most 2 µM.

In the case of `COc1cc(C(=O)N2CC[C@]3(c4ccccc4)OCOC3C2)ccc1C(C)(C)CO` (some centres unmarked) [Compound 91], the IC50 was at most 2 µM.

As for `COc1cc(C(=O)N2CC[C@]3(c4ccccn4)OCOC3C2)ccc1OCCOC(F)(F)F` (some centres unmarked) [Compound 92], the IC50 was at most 2 µM.

`COc1cc(C(=O)N2CC[C@]3(c4ncccc4F)OCOC3C2)ccc1OCCOC(F)(F)F` (some centres unmarked) [Compound 93]: the IC50 was at most 2 µM.

Take `COc1cccnc1[C@]12CCN(C(=O)c3ccc(OCCOC(F)(F)F)c(Cl)c3)CC1OCO2` (some centres unmarked) [Compound 94]: the IC50 is at most 2 µM.

Consider `Cc1cc(C(=O)N2CC[C@]3(c4ccccn4)OCOC3C2)ccc1OCC(C)(C)F` (some centres unmarked) [Compound 95], for which the IC50 was at most 2 µM.

Take `COc1nc(C(=O)N2CC[C@]3(c4ncccc4F)OCOC3C2)ccc1OCCOC(F)(F)F` (some centres unmarked) [Compound 96]: the IC50 was at most 2 µM.

`Cc1cc(C(=O)N2CC[C@]3(c4nccs4)OCOC3C2)ccc1OCC(C)(C)F` (some centres unmarked) [Compound 97]: the IC50 is at most 2 µM.

For the compound `COc1cc(OC(C)C)ccc1C(=O)N1CCC2(c3ccccc3)CC2C1` (centres unmarked) [Compound 98], the IC50 was at most 2 µM.

With `COc1cc(C(=O)N2CC[C@]3(c4ccc(F)cc4)OCOC3C2)ccc1OCCOC(F)(F)F` (some centres unmarked) [Compound 99], the IC50 was at most 2 µM.

Take `Cc1cc(C(=O)N2CC[C@]3(c4ncccc4F)OCOC3C2)ccc1OCC(C)(C)F` (some centres unmarked) [Compound 100]: the IC50 is at most 2 µM.

As for `COc1cc(C(=O)N2CC[C@]3(c4ccccn4)CC3C2)ccc1OCCOC(F)(F)F` (some centres unmarked) [Compound 101], the IC50 is at most 2 µM.

(Values after patent US10233191B2, “Fused piperidine amides as modulators of ion channels” (Vertex Pharmaceuticals Incorporated, priority 2013, dated 2019).)
